# Source: ChEMBL document CHEMBL1141287, “Cardenolides from Saussurea stella with cytotoxicity toward cancer cells” (J Nat Prod, 2007)
# Columns and labels:
# [1] = Cytotoxicity against human BCG823 cells after 48 hrs by sulforhodamine B assay; type: functional, cell-based; conditions: BCG823, 48 h
# Bel-7402 = assay: Cytotoxicity against human Bel7402 cells after 48 hrs by sulforhodamine B assay; type: functional, cell-based; conditions: Bel-7402, 48 h
smiles,measurement,setting,value
C[C@@H]1O[C@@H](O[C@H]2CC[C@]3(C=O)[C@H]4CC[C@]5(C)[C@@H](C6=CC(=O)OC6)CC[C@]5(O)[C@@H]4CC[C@]3(O)C2)[C@H](O)[C@H](O)[C@H]1O [CONVALLATOXIN],IC50,[1],16 nM
same,IC50,Bel-7402,50 nM
C[C@@H]1O[C@@H](O[C@@H]2C[C@H]3CC[C@@H]4[C@H](CC[C@]5(C)[C@@H](C6=CC(=O)OC6)CC[C@]45O)[C@@]3(C)[C@H](O)C2)[C@H](O)[C@H](O)[C@H]1O,IC50,[1],56 nM
same,IC50,Bel-7402,240 nM
C[C@H]1O[C@@H](O[C@H]2CC[C@]3(C)[C@H]4CC[C@]5(C)[C@@H](C6=CC(=O)OC6)CC[C@]5(O)[C@@H]4CC[C@]3(O)C2)[C@H](O)[C@@H](O)[C@@H]1O,IC50,[1],70 nM
same,IC50,Bel-7402,310 nM
C[C@]12CC[C@H](O[C@@H]3OC[C@@H](O)[C@H](O)[C@H]3O)C[C@@]1(O)CC[C@@H]1[C@@H]2CC[C@]2(C)[C@@H](C3=CC(=O)OC3)CC[C@]12O,IC50,[1],230 nM
same,IC50,Bel-7402,480 nM
C[C@@H]1O[C@@H](O[C@H]2CC[C@@]3(C=O)[C@H](CC[C@@H]4[C@@H]3CC[C@]3(C)[C@@H](C5=CC(=O)OC5)CC[C@]43O)C2)[C@H](O)[C@H](O)[C@H]1O[C@@H]1O[C@H](CO)[C@@H](O)[C@H](O)[C@H]1O,IC50,[1],290 nM
same,IC50,Bel-7402,870 nM
C[C@@H]1O[C@@H](O[C@H]2CC[C@@]3(CO)[C@H](CC[C@@H]4[C@@H]3CC[C@]3(C)[C@@H](C5=CC(=O)OC5)CC[C@]43O)C2)[C@H](O)[C@H](O)[C@H]1O,IC50,[1],77 nM
same,IC50,Bel-7402,28 nM
C[C@]12CC[C@H]3[C@@H](CC[C@]4(O)C[C@@H](O[C@@H]5OC[C@@H](O)[C@H](O)[C@H]5O)CC[C@]34C=O)[C@@]1(O)CC[C@@H]2C1=CC(=O)OC1,IC50,[1],16 nM
same,IC50,Bel-7402,130 nM
C[C@H]1O[C@@H](O[C@H]2CC[C@]3(C)[C@H]4CC[C@]5(C)[C@@H](C6=CC(=O)OC6)CC[C@]5(O)[C@@H]4CC[C@]3(O)C2)[C@H](O)[C@@H](O)[C@H]1O,IC50,[1],120 nM
same,IC50,Bel-7402,400 nM
C[C@H]1O[C@@H](O[C@H]2CC[C@]3(C=O)[C@H]4CC[C@]5(C)[C@@H](C6=CC(=O)OC6)CC[C@]5(O)[C@@H]4CC[C@]3(O)C2)[C@H](O)[C@@H](O)[C@@H]1O,IC50,[1],100 nM
same,IC50,Bel-7402,20 nM
